row,SMILES,melting point [°C]
1,O=c1[nH]c2scc(C3CC3)c2[nH]c1=O,> 250
2,CC1CC(=O)NN=C1c1ccc2c(c1)NCCO2 (stereo not drawn),166 to 168
3,CNC(NCCSCc1nccc(NC(N)=NCC(F)(F)F)n1)=C(C#N)C#N,173 to 174
4,ICCCCCCc1ccc(-c2ccccc2)cc1,77 to 77.5
5,FC(F)(F)c1cccc(N2CCN(c3ccc(I)nn3)CC2)c1,145
6,O=C(Nc1ccc(-n2nc(C(F)(F)F)cc2C(F)(F)F)cc1)C1CC1c1ccccc1 (stereo not drawn),176 to 178
7,CON=Cc1nc(Nc2ccccc2)nc(C)c1C,85 to 88
8,CCOC(=O)C(C)(C)OC(=O)c1cc(-n2c(=O)cc(C(F)(F)F)[nH]c2=O)ccc1Cl,176 to 177
9,C[C@@H]1C[C@H](CC2CCCCC2)C(=O)O1 (relative stereo),60 to 62
10,Cc1cccc(C)c1NCC(=O)N1CCCO1,82 to 83
11,CCCCCCCCCCCCCCCCCC(=O)ON1C(C)(C)CC(OC(C)=O)CC1(C)C,55 to 58
12,O=C1NCC[C@@H]1NCc1ccc(OCc2cccc(F)c2)cc1,140 to 144
13,CC(C)CCNC1=NS(=O)(=O)c2sc(Cl)cc2N1,230 to 232
14,CCN1CCN(c2cc(-c3ccc(O)cc3)c3c(n2)CCCCCC3)CC1,250 to 253
15,CSc1nn2c(N(C)C)cc(C)nc2c1S(=O)(=O)c1ccc(C)cc1,> 230
16,CCc1ncnc(Cl)c1I,56 to 57
17,Cc1ccccc1C(N)=CC#N,111 to 113
18,CCCCCCCCCCCCCCOc1ccc(C(=O)OCC)cc1,34 to 35
19,Cc1cc(=O)c2c([nH]1)CCOC2,> 285
20,Cc1ccc(S(=O)(=O)Oc2n[nH]c(CO)c2C(C)(C)C)cc1,62 to 65
21,C=C(c1ccc(Cl)cc1)c1ccc(NC(=O)c2cc(Br)cc(Br)c2O)cc1,181 to 183
22,CCCn1c(=O)c2[nH]c(CC34CC5CC(CC(C5)C3)C4)nc2n(CCC)c1=O,178 to 180
23,CN(C(=O)OC(C)(C)C)c1cc(Oc2ccc(-c3nnn(C(c4ccccc4)(c4ccccc4)c4ccccc4)n3)cc2)ccc1N,192 to 193
24,Cc1c(C#N)sc2nc(-c3ccc4c(c3)OCO4)nc(N(C)CCO)c12,195 to 197
25,CCN1C(=O)C2CCc3c(Br)ccc(OC)c3C2C1=O (stereo not drawn),170 to 174
26,Cc1nc(-c2ccccc2Cl)n2c1nnc1ccc(N3CCCCC3)cc12,207 to 210
27,COc1ccc(C=C2SCCS2)cc1OC,74 to 75
28,COc1ccc(N2CCOCC2)c2sc(C(=O)NC3CCCCC3=O)nc12 (stereo not drawn),165

# The remaining lines, values ahead:
row,melting point [°C],SMILES
1,103 to 104,CC(=O)c1ccc2c(c1)Cc1ccccc1O2
2,128 to 132,Clc1ccc(-c2ccc(-c3ccccc3)s2)s1
3,147 to 148,NCC(=O)N(N)c1ccc2ccccc2c1
4,159 to 160,O=C(C=Cc1cccc(-c2ccccc2)c1)Nc1ccc(CN2CCCCC2)cc1
5,195 to 197,COc1ccc(C(=O)Nc2ccccc2)cc1NS(=O)(=O)c1cccc(C)c1
6,100 to 103,COc1ccc(CCC(=O)NCCc2cccc(C)c2)cc1OC
7,117 to 118,C=C(C)Sc1oc2cc(OC)ccc2c(=O)c1-c1ccccc1
8,200,CN(c1ccnc(C(N)=O)c1)c1ccccc1C(=O)Nc1cc2ccccc2cn1
9,127 to 129,CN(C)c1ccc2nc(-c3ccccc3)oc2n1
10,173 to 175,Cc1noc(=O)c2ccc(NC(=O)C(C)(O)CC(C)(C)c3ccccc3)cc12 (stereo not drawn)
11,138 to 139,CCn1c2cc(C=O)ccc2c2ccc3ccccc3c21
12,96,Clc1ccc(Cc2ccc(-c3ccccc3)cc2)cc1
13,252 to 255,Cc1ccccc1-c1c(Cn2cnc3c(N)ncnc32)oc2ccc(Br)cc2c1=O
14,180 to 181,O=C(Nc1ccccc1)OCC1c2ccccc2Oc2ccccc21
15,140 to 145,O=C(CBr)c1coc2ccccc2c1=O
